{
  "source": "paper PMC12431658",
  "about": "“Versatile roles of rubredoxin reductase of Pseudomonas aeruginosa TBCF10839 in virulence and stress protection” (PLOS Pathogens, 2025)",
  "target": "T1, rubredoxin reductase RubB (also RubR, RdxR) (Pseudomonas aeruginosa, UniProt Q9HTK9)",
  "T1 construct": "gene alkT; gene 1,155 bp",
  "T1 sequence (Q9HTK9 whole entry)": "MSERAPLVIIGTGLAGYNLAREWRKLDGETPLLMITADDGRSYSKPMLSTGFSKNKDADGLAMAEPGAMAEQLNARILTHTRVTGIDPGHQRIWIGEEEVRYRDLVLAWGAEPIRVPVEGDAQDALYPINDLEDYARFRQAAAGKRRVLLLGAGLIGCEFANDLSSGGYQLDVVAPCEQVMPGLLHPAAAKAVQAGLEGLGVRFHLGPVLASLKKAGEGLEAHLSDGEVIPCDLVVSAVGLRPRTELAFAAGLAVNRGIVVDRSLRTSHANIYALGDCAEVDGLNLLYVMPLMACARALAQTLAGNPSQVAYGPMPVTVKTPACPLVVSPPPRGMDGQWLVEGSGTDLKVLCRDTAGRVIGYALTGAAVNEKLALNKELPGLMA",
  "assay": "stopped-flow FAD fluorescence (excitation […] nm)",
  "assay_type": "biochemical",
  "details": "pH 8.0, 0.1 M NaCl, 25 °C; reduction of bound FAD; no RubA2",
  "data": [
    {"compound": "NC(=O)C1=CN([C@@H]2O[C@H](COP(=O)(O)OP(=O)(O)OC[C@H]3O[C@@H](n4cnc5c(N)ncnc54)[C@H](O)[C@@H]3O)[C@@H](O)[C@H]2O)C=CC1", "note": "[NADH]", "values": [
      {"measurement": "stopped-flow FAD fluorescence (excitation 436 nm)", "result": "after the addition of NADH the FAD fluorophore was reduced within milliseconds to FADH2"}
    ]}
  ]
}
